Test results published in patent publication US20110086759A1, “CHEMICAL COMPOUNDS” (SYNGENTA CROP PROTECTION, INC., priority 2007, published 2011).

Tests used:
Type in all cases: in vivo
[1] = tested on: Echinochloa crus-galli (ECHCG); test: Post-emergence biological efficacy, glasshouse pot test; settings: 312 h, post-emergence, 1,000 g/ha, evaluated after 13 days (100=total damage; 0=no damage), read-out: Percentage damage caused to weed species, ECHCG
Procedure, shortened: (§1)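 Plants were sown in standard soil and grown 8 days in a glasshouse (24/16° C. day/night, 14 hours light, 65% humidity), then sprayed post-emergence at 1000 or 250 g/ha from acetone/water (50:50) with 0.5% Tween 20. Damage was scored visually after 13 days (0 = none, 100 = total).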

Setaria faberi (SETFA) [2] = test: as above; settings: 312 h, post-emergence, 1,000 g/ha, evaluated after 13 days (100=total damage; 0=no damage), read-out: Percentage damage caused to weed species, SETFA
Procedure, shortened: as §1

Solanum nigrum (SOLNI) [3] = test: as above; settings: 312 h, post-emergence, 1,000 g/ha, evaluated after 13 days (100=total damage; 0=no damage), read-out: Percentage damage caused to weed species, SOLNI
Procedure, shortened: as §1

[4] = tested on: Amaranthus retoflexus (AMARE); test: as above; settings: Amaranthus retroflexus, 312 h; post-emergence, 1,000 g/ha, evaluated after 13 days (100=total damage; 0=no damage); read-out: Percentage damage caused to weed species, AMARE
Procedure, shortened: as §1

[5] = tested on: Ipomea hederaceae (IPOHE); test: as above; settings: Ipomoea hederacea, 312 h; post-emergence, 1,000 g/ha, evaluated after 13 days (100=total damage; 0=no damage); read-out: Percentage damage caused to weed species, IPOHE
Procedure, shortened: as §1

[6] = tested on: Alopecurus myosuroides (ALOMY); test: as above; settings: 312 h, post-emergence, 1,000 g/ha, evaluated after 13 days (100=total damage; 0=no damage), read-out: Percentage damage caused to weed species, ALOMY
Procedure, shortened: as §1

[7] = tested on: Echinochloa crus-galli (ECHCG); test: Pre-emergence biological efficacy, glasshouse pot test; settings: 312 h, pre-emergence, 1,000 g/ha, evaluated after 13 days (100=total damage; 0=no damage), read-out: Percentage damage ECHCG
Procedure, shortened: (§2)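 One day after seeds were sown in pots, compound was sprayed at 1000 or 250 g/ha. Plants were kept at 24/16 °C with 14 h light and 65% humidity and watered twice daily; damage was graded at day 13 (0 none, 100 total).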

Setaria faberi (SETFA) [8] = test: as above; settings: 312 h, pre-emergence, 1,000 g/ha, evaluated after 13 days (100=total damage; 0=no damage), read-out: Percentage damage SETFA
Procedure, shortened: as §2

Solanum nigrum (SOLNI) [9] = test: as above; settings: 312 h, pre-emergence, 1,000 g/ha, evaluated after 13 days (100=total damage; 0=no damage), read-out: Percentage damage SOLNI
Procedure, shortened: as §2

[10] = tested on: Amaranthus retoflexus (AMARE); test: as above; settings: Amaranthus retroflexus, 312 h; pre-emergence, 1,000 g/ha, evaluated after 13 days (100=total damage; 0=no damage); read-out: Percentage damage AMARE
Procedure, shortened: as §2

[11] = tested on: Ipomea hederaceae (IPOHE); test: as above; settings: Ipomoea hederacea, 312 h; pre-emergence, 1,000 g/ha, evaluated after 13 days (100=total damage; 0=no damage); read-out: Percentage damage IPOHE
Procedure, shortened: as §2

[12] = tested on: Alopecurus myosuroides (ALOMY); test: as above; settings: 312 h, pre-emergence, 1,000 g/ha, evaluated after 13 days (100=total damage; 0=no damage), read-out: Percentage damage ALOMY
Procedure, shortened: as §2

SMILES	pest or weed control at 1000 g/ha [1]	pest or weed control at 1000 g/ha (Setaria faberi (SETFA) [2])	pest or weed control at 1000 g/ha (Solanum nigrum (SOLNI) [3])	pest or weed control at 1000 g/ha [4]	pest or weed control at 1000 g/ha [5]	pest or weed control at 1000 g/ha [6]	pest or weed control at 1000 g/ha [7]	pest or weed control at 1000 g/ha (Setaria faberi (SETFA) [8])	pest or weed control at 1000 g/ha (Solanum nigrum (SOLNI) [9])	pest or weed control at 1000 g/ha [10]	pest or weed control at 1000 g/ha [11]	pest or weed control at 1000 g/ha [12]
COC(=O)c1nc(C2CC2)nc(NCCC2OCCO2)c1Cl [Compound 4-216, 5-Chloro-2-cyclopropyl-4-[2-(1,3-dioxolan-2-yl)ethylamino]-6-methoxycarbonyl-pyrimidine]	20%	60%	70%	100%	80%	20%	40%	40%	90%	100%	100%	30%
COC(=O)c1nc(C2CC2)nc(NCCN2CCNC2=O)c1Cl [Compound 4-219, 5-Chloro-2-cyclopropyl-6-methoxycarbonyl-4-[2-(2-oxo-imidazolidin-1-yl)ethylamino]-pyrimidine]	0%	10%	50%	50%	50%	0%	0%	0%	30%	60%	90%	0%
COC(=O)c1nc(C2CC2)nc(NCCN2CCOCC2)c1Cl [Compound 4-220, 5-Chloro-2-cyclopropyl-6-methoxycarbonyl-4-[2-(morpholin-4-yl)ethylamino]-pyrimidine]	30%	40%	90%	100%	100%	20%	30%	0%	40%	60%	50%	0%
COC(=O)c1nc(C2CC2)nc(NCCc2ccccc2)c1Cl [Compound 4-221, 5-Chloro-2-cyclopropyl-6-methoxycarbonyl-4-(2-phenylethyl-amino)-pyrimidine]	40%	70%	80%	100%	100%	30%	60%	60%	90%	100%	100%	60%
COC(=O)c1nc(C2CC2)nc(NCCc2ccc(S(N)(=O)=O)cc2)c1Cl [Compound 4-222, 4-[2-(4-Amino-sulphonylphenyl)-ethylamino]-5-chloro-2-cyclo-propyl-6-methoxy-carbonylpyrimidine]	0%	0%	20%	30%	60%	0%	0%	0%	0%	30%	10%	0%
COC(=O)c1nc(C2CC2)nc(NCCc2cccs2)c1Cl [Compound 4-224, 5-Chloro-2-cyclopropyl-6-methoxycarbonyl-4-[2-(thiophen-2-yl)ethylamino]-pyrimidine]	10%	30%	70%	100%	50%	10%	0%	0%	30%	20%	70%	0%
